In US20260137774A1, “Hepatitis B Virus Receptor OATP and Use Thereof” (priority 2022, published 2026):

Tests used:
HepG2 cells = test: Drug susceptibility test of selection antibiotics on HepG2 cells; assay type: cell-based
Hela cells = test: Drug susceptibility test of selection antibiotics on HeLa cells; assay type: cell-based
human OATP1B1 (hOATP1B1) = biological target: T1, human OATP1B1 (hOATP1B1) (Homo sapiens, UniProt Q9Y6L6); conditions: pH 7.4
T1 sequence (Q9Y6L6 1-691): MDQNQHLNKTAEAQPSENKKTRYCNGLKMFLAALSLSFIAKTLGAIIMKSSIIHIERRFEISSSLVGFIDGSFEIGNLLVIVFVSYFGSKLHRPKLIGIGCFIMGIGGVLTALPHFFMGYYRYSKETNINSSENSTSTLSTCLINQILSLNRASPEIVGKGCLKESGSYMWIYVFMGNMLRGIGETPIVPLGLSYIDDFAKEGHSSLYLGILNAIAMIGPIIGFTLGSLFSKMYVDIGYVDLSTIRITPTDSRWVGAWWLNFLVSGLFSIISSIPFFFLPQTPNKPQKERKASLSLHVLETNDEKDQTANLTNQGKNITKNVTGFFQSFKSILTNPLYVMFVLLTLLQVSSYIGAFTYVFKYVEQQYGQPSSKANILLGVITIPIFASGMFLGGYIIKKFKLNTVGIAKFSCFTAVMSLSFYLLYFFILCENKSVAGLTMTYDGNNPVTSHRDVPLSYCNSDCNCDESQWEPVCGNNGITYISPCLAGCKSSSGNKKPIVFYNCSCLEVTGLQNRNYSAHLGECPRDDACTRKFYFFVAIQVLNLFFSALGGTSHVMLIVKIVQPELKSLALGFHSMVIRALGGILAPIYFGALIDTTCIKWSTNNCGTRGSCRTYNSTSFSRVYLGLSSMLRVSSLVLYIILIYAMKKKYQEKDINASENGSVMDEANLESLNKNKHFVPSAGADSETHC
Protocol: (§1) Cells for experiments were cultured in DMEM medium at 37° C. and 5% C02. Among them, DMEM medium contains 10% fetal calf serum, penicillin-streptomycin solution (100 U/mL and 0.1 mg/mL) and 0.5 mg/mL geneticin. Before the transfer experiment, cells were seeded in a 24-well plate at a density of 4×10^5 cells/well. The transfer experiment can be performed when the cell confluence reaches 80-90%.
(§2) The concentrations of substrates and positive inhibitors for each transporter are as follows.
(§3) Preparation of working solution: Use PBS to prepare a test substance stock solution with a concentration of 6 mM, and then dilute it with PBS in a gradient to 2000 μM, 1000 μM, 200 μM, 100 μM and 20 μM concentration working solution, and dilute the above working solutions of different concentrations to 20 μM, 10 μM, 2 μM, 1 μM and 0.2 μM concentration dosing solutions (Dosing Solution) respectively, so that the final concentrations of the test substance in the test system are 10 μM, 5 μM and 5 μM respectively. μM, 1 μM, 0.5 μM and 0.1 μM.
(§4) Pre-incubation of OATP1B1 and OATP1B3: Aspirate the culture medium from the culture plate, and wash the cells twice with 37° C. pre-warmed TB buffer (pH7.4), 0.5 mL each time. […] Among them, the NC group includes MOCK cells and each transporter cell, and the MOCK cell group is used to calculate the uptake ratio and passive transport amount. […]

human OATP1B3 (hOATP1B3) = biological target: T2, human OATP1B3 (hOATP1B3) (Homo sapiens, UniProt Q9NPD5); conditions: pH 7.4
T2 sequence (Q9NPD5 1-702): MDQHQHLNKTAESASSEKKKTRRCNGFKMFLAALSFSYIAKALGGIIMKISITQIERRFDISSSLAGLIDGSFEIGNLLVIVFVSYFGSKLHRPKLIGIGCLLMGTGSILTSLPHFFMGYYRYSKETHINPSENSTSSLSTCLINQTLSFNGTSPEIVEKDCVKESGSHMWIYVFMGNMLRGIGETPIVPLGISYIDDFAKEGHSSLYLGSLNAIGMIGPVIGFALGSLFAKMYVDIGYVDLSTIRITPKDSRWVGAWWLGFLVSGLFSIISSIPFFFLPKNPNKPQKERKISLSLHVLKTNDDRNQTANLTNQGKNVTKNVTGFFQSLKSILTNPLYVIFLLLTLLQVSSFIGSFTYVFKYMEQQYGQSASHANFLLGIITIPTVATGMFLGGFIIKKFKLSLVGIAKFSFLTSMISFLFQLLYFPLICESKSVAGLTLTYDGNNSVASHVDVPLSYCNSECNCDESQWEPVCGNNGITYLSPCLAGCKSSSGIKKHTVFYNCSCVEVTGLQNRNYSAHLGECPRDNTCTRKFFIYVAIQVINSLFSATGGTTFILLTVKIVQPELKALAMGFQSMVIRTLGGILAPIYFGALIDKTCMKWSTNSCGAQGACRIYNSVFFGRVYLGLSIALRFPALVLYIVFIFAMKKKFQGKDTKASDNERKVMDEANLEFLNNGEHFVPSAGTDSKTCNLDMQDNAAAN
Protocol: as §1, §2, §3, §4

SMILES | concentration that could kill all cultured cells (HepG2 cells) [µg/mL] | concentration that could kill all cultured cells (Hela cells) [µg/mL] | uptake ratio of drug substrate (human OATP1B1 (hOATP1B1)) | uptake ratio of drug substrate (human OATP1B3 (hOATP1B3))
CN(CC[C@H](N)CC(=O)N[C@H]1C=C[C@H](n2ccc(N)nc2=O)O[C@@H]1C(=O)O)C(=N)N [BSD, Blasticidin] | 2 |  |  | 
COc1ccc(C[C@H](N)C(=O)N[C@H]2[C@@H](O)[C@H](n3cnc4c(N(C)C)ncnc43)O[C@@H]2CO)cc1 [puromycin] | 1 | 1 |  | 
CCCCC(=O)N(Cc1ccc(-c2ccccc2-c2nnn[nH]2)cc1)[C@H](C(=O)O)C(C)C [valsartan] |  |  | 3.25 | 6.90
